Measurements from patent US20140157443A1, “METHODS AND COMPOSITIONS FOR DETECTING AND MODULATING A NOVEL MTOR COMPLEX” (ST. JUDE CHILDREN'S RESEARCH HOSPITAL, priority 2011, published 2014).
“Also recorded” adds a separate entry of the source.

Tests used:
[1] = system: mTOR signaling in TEL2-expressing Arf−/− mouse pre-B cells; experiment: Immunoblots of mTOR target phosphorylation, KI-67 and LC3B in AZD-8055-treated TEL2-expressing pre-B cells; assay type: cell-based
Procedure: (§1) FIG. 5A provides a graph presenting cell density as a percent control of Karpas-299 cells. Logarithmically growing Karpas-299 cells were treated for three population doublings with increasing amounts (0.1, 0.3, 1, 3, 10, 30, 100, 300, 1000, 3000, 10,000 ng/ml) of Rapamycin, AZD-8055 or OSI-27. Cell densities were plotted as the percentage of cells treated with vehicle. FIG. 5B provides a graph presenting cell density as a percent control of mouse pre-B cells transduced with MSCV-IRES-GFP (vector) or MSCV-TEL2-IRES-GFP (TEL2) and treated with AZD-8055 or Rapamycin. Cell densities were plotted as the percentage of cells treated with vehicle. FIG. 5C provides m-TOR IP/immunoblots of lysates of the Rapamycin-treated Karpas-299 cells probed for the presence of Rictor, mSIN1, mLST8 and TEL2. FIG. 5D provides immunoblots of the same Rapamycin-treated fractions of FIG. 5C probed for the presence of p-mTOR^Ser2448, p-AKT^Ser473, p-AKT^Thr308, p-P70S6K^Thr389, p-S6^Ser235/236, p-4E-BP1^Thr37/46 and for the autophagosome marker LC3B I/II.
At 100 ng/ml AZD-8055, the autophagy salvage pathway was activated as detected by the change in the relative amounts of the LC3BI/II proteins.
(§2) For western blot analysis, cells were lysed in 1× lysis buffer (Cell Signaling Technologies). For co-IP experiments, cells were lysed in CHAPS lysis buffer and xenografts in 1× cell signaling lysis buffer. Co-IP was performed with 2 μg antibody whilst rotating at 4° C.

[2] = system: mTOR signaling in Karpas-299 cells; experiment: Immunoblots of mTOR target phosphorylation, Ki-67 and LC3B in treated Karpas-299 cells; assay type: cell-based, human
Procedure: as §1, with “FIG. 5C provides m-TOR IP/immunoblots of lysates of the Rapamycin-treated Karpas-299 cells probed for the presence of Rictor, mSIN1, mLST8 and TEL2.” left out
as §2

[3] = system: TEL2-expressing primary Arf−/− mouse pre-B cells; experiment: mTOR inhibition: proliferation of TEL2-expressing pre-B cells; assay type: cell-based
Procedure: as §1, with “FIG. 5C provides m-TOR IP/immunoblots of lysates of the Rapamycin-treated Karpas-299 cells probed for the presence of Rictor, mSIN1, mLST8 and TEL2.” left out
(§3) Cells were plated in drug containing growth medium and followed for three population doublings.

Karpas-299 cells = experiment: mTOR inhibition: proliferation of Karpas-299 cells over three population doublings; assay type: cell-based, human; conditions: 0.1 to 10,000 ng/ml
Procedure: FIG. 5A provides a graph presenting cell density as a percent control of Karpas-299 cells. […] Cell densities were plotted as the percentage of cells treated with vehicle. […] Cell densities were plotted as the percentage of cells treated with vehicle.
as §3

mTORC3 = target: T1, mTORC3 (Homo sapiens, UniProt P42345); experiment: IP-kinase assay, TEL2 IP (mTORC3 alone) with recombinant 4E-BP1; assay type: biochemical; conditions: Karpas-299 TEL2 IP, recombinant 4E-BP1, γ32P-ATP; FKBP12/Rapamycin 37 μg/ml/20 μM; OSI-27 10 μM
T1 construct: endogenous TEL2-expressing Karpas-299 cell lysates immunoprecipitated with mTOR (mTOR IP) or TEL2 (TEL2-IP) antibodies; endogenous in cells; host or cells: Karpas-299
Procedure: (§4) IgG indicates the immunoprecipitation with non-relevant IgG.
(§5) To determine the relative amounts of mTORC 1, 2 and 3, whole cell lysates of Karpas-299 cells were immunoprecipitated with non-relevant IgG, anti-mTOR, anti-TEL2, anti-Raptor, or anti-Rictor antibodies and the IPs were used for western blotting and in vitro kinase assays. […] For in vitro kinase assays, the IPs were incubated with recombinant 4E-BP1 or AKT in the presence of ATP.
(§6) Captured antibody-protein complexes were incubated with recombinant 4E-BP1 (Abcam) or AKT/PKB (Millipore) in the presence of (γ^32P-) ATP.

mTOR = target: T2, mTOR (Homo sapiens, UniProt P42345); experiment: IP-kinase assay, mTOR IP (mTORC1+mTORC2+mTORC3) with recombinant 4E-BP1; assay type: biochemical; conditions: Karpas-299 mTOR IP, recombinant 4E-BP1, γ32P-ATP; FKBP12/Rapamycin 37 μg/ml/20 μM; OSI-27 10 μM
T2 construct: endogenous TEL2-expressing Karpas-299 cell lysates immunoprecipitated with mTOR (mTOR IP) or TEL2 (TEL2-IP) antibodies; endogenous in cells; host or cells: Karpas-299
Procedure: as §4, §5, §6

[4] = system: vector-transduced Arf−/− pre-B cells; experiment: mTOR inhibition: proliferation of vector-transduced pre-B cells; assay type: cell-based, mouse
Procedure: as §1
To determine if mTORC3 is also insensitive to Rapamycin inhibition in vivo, Karpas-299 cells were treated with increasing amounts of drug for three population doublings. […] This was deduced from the steady relative intensities of LC3BI/II proteins at all Rapamycin concentrations (FIG. 5D). […]

[5] = target: T3, SIN1 of mouse Arf-/- pre-B cells (mouse, UniProt Q8BKH7 2-522, limits assumed); experiment: TEL2 IP / western blot, whole cell lysates of mouse Arf-/- pre-B cells expressing TEL2 (FIG. 2A)
T3 construct: also called mSIN1
T3 sequence (Q8BKH7 2-522 limits assumed): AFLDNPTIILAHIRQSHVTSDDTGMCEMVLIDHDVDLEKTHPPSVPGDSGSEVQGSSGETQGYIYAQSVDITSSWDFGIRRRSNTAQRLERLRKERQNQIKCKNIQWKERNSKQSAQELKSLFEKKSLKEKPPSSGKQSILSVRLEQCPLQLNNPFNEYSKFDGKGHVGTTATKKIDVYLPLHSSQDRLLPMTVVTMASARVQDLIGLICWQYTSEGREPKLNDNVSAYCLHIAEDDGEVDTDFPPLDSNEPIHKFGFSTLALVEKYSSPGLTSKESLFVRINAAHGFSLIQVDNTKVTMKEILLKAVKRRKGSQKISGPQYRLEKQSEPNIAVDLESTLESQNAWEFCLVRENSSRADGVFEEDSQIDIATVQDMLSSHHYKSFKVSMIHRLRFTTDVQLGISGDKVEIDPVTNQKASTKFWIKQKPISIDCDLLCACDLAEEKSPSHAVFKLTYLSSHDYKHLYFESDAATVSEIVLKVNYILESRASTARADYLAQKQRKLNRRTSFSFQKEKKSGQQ
Procedure: as §2

[6] = target: Rictor of mouse Arf-/- pre-B cells (mouse, UniProt Q6QI06 1-1708); experiment: as above
Chain of Rictor of mouse Arf-/- pre-B cells (Q6QI06 whole entry): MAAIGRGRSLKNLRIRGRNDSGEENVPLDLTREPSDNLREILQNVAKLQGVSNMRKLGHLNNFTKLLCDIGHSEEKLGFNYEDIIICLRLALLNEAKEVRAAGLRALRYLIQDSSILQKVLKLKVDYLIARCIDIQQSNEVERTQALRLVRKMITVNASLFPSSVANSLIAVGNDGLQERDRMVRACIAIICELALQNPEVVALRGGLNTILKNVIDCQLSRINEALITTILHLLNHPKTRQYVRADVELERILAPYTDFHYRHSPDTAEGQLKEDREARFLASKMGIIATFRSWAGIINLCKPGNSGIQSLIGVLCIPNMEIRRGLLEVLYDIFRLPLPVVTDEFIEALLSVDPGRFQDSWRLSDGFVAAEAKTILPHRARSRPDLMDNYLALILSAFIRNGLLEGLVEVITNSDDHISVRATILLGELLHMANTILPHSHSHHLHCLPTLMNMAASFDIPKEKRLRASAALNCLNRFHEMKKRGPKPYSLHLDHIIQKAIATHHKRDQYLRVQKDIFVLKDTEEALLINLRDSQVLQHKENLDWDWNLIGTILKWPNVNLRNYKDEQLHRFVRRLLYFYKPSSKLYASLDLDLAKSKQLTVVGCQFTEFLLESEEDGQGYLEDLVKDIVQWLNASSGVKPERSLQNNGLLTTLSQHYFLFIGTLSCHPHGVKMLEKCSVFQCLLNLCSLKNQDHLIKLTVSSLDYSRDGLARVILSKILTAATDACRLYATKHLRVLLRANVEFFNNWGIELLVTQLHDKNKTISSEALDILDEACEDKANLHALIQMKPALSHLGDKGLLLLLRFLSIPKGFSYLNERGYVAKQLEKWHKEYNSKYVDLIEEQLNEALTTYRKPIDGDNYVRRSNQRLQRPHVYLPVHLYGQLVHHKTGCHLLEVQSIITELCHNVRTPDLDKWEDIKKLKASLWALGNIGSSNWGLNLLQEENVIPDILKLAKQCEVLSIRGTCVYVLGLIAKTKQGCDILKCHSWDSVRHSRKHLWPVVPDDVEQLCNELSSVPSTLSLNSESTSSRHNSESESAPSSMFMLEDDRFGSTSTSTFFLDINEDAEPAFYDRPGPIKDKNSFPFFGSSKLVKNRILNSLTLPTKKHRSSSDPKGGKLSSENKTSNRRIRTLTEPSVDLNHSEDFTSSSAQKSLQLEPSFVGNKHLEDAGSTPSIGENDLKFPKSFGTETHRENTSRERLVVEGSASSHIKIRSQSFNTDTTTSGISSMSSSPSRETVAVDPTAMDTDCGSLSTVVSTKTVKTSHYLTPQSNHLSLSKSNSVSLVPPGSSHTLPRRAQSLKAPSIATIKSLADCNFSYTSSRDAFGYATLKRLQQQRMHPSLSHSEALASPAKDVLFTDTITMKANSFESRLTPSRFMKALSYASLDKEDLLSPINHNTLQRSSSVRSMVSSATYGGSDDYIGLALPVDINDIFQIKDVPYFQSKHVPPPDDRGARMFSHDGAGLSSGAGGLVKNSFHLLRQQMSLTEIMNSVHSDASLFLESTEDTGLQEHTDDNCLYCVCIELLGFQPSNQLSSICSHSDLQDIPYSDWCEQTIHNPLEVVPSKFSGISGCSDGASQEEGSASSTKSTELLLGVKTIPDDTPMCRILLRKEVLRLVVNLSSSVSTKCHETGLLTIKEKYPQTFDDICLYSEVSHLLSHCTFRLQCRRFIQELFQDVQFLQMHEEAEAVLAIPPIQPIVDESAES
Procedure: as §2

[7] = target: T4, Rictor (human cell lines) (human, UniProt Q6R327 1-1708); experiment: TEL2 IP / western blot of cytoplasmic, membrane and nuclear fractions of Karpas-299 cells (FIG. 3A)
T4 construct: mTORC2 component
Procedure: Nuclear, cytoplasmic and membrane fractions of Karpas-299 cells were subjected to IP-Western blotting to determine the cellular location of mTORC3.
as §2

[8] = target: T5, RUVBL2 (bacterially-expressed, purified recombinant) (UniProt Q9Y230 1-463, limits assumed); experiment: purified proteins co-incubated for 8 or 24 hours, TEL2 IP, western blot for RUVBL2 (FIG. 2C)
T5 construct: Used as a specificity control, a protein not part of mTORC3
T5 sequence (Q9Y230 whole entry): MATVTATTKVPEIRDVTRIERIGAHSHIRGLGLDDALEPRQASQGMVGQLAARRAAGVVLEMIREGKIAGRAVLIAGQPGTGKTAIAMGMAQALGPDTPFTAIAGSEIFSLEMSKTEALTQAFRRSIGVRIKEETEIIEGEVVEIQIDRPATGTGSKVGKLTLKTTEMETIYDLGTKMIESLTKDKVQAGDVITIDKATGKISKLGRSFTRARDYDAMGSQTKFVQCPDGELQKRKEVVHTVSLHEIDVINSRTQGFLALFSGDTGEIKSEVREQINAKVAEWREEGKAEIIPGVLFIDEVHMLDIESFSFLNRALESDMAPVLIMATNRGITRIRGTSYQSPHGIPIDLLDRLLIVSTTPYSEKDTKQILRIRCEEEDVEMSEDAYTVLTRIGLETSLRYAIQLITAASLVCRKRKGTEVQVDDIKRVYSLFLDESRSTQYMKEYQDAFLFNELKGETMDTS

[9] = target: T6, Raptor (human cell lines) (human, UniProt Q8N122 1-1335); experiment: TEL2 IP / western blot, whole cell lysates of Karpas-299, K562 and OS-17 cells (FIG. 2B)
T6 construct: mTORC1 component
T6 sequence (Q8N122 whole entry): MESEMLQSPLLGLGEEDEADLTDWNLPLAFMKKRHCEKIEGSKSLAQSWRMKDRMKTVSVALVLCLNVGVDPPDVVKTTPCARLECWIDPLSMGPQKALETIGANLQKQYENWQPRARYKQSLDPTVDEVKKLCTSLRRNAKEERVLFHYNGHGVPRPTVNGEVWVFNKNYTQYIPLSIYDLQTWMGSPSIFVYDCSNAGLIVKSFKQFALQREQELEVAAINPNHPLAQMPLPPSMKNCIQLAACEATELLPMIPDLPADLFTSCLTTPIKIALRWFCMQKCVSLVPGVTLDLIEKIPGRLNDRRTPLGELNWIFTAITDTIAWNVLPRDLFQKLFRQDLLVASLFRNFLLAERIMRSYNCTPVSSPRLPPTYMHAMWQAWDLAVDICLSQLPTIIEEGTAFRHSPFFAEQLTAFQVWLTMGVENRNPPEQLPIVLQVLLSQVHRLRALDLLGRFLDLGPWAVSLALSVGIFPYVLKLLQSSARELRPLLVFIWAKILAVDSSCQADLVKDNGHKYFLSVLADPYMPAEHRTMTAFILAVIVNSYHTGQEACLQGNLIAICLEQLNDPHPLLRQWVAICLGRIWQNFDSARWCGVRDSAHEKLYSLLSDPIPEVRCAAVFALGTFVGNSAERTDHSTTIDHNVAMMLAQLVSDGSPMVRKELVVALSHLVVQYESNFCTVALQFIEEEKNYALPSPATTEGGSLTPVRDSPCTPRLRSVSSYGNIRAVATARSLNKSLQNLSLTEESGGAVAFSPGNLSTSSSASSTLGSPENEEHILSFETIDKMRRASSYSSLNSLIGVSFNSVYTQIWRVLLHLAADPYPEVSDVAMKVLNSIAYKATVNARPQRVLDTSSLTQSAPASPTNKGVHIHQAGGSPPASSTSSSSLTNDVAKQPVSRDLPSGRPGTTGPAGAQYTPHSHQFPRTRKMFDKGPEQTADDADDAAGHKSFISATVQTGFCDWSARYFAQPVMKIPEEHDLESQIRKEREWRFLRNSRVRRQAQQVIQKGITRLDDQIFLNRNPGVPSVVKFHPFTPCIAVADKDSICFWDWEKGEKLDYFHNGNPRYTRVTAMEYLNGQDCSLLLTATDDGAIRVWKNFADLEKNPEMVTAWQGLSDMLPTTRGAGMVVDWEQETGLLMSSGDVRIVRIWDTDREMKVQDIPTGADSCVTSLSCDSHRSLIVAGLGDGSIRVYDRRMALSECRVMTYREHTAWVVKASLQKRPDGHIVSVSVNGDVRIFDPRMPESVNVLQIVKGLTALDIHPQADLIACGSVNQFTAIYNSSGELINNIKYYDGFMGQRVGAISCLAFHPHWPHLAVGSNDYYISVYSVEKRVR
Procedure: as §2

SIN1 (human cell lines) = target: T7, SIN1 (human cell lines) (human, UniProt Q9BPZ7 2-522, limits assumed); experiment: as above
T7 construct: mTORC2 component; also called mSIN1
T7 sequence (Q9BPZ7 2-522 limits assumed): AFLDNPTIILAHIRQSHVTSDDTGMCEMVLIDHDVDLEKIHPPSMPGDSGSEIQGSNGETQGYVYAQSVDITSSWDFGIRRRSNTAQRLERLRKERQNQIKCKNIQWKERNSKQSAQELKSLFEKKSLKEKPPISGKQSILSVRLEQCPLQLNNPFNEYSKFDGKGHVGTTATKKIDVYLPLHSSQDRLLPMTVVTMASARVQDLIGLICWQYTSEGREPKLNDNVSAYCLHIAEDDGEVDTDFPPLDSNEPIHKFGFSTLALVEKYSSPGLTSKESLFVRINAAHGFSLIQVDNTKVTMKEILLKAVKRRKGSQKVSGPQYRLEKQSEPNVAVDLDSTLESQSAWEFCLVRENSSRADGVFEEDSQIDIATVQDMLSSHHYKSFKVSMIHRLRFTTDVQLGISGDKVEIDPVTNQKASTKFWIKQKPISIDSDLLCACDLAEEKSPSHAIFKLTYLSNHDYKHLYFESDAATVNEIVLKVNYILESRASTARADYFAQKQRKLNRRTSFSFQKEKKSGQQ
Procedure: as §2

## COc1ccc(-c2ccc3c(N4CCOC[C@@H]4C)nc(N4CCOC[C@@H]4C)nc3n2)cc1CO [AZD-8055]
[1]; TEL2-expressing pre-B cells
  Autophagy salvage pathway: did not induce the autophagy salvage pathway
[1]; TEL2-expressing pre-B cells after complete loss of mTOR signaling
  Cell survival: died rapidly
[1]; TEL2-expressing pre-B cells, >100 ng/ml
  p-Akt Ser473, p-S6 Ser235/236, p-4E-BP1 Thr37/46 phosphorylation and KI-67 antigen: loss of p-Akt^Ser473, p-S6^Ser235/236, p-4E-BP1^Thr37/46 phosphorylation and loss of the KI-67 antigen
[2]; Karpas-299
  Concentration giving complete loss of 4E-BP1 Thr37/46, P70S6K Thr389 and AKT Ser473 phosphorylation, coinciding with loss of cell proliferation: 100 ng/mL
  Phosphorylation of AKT Thr308: remained stable
[2]; Karpas-299, 100 ng/ml
  Autophagy salvage pathway (relative amounts of LC3BI/II): activated
  Ki-67 antigen (transition to G0 phase): loss of the Ki-67 antigen
[2]
  mTORC3 signaling / kinase activity in cultured cells: sensitive; also recorded: fully inhibited
[3]
  Drug concentration that completely inhibited proliferation: > 100 ng/mL
Karpas-299 cells
  Proliferation of Karpas-299 cells: completely inhibited proliferation

## COc1cccc2cc(-c3nc([C@H]4CC[C@H](C(=O)O)CC4)n4ncnc(N)c34)[nH]c12 [OSI-27]
mTORC3
  4E-BP1 phosphorylation (kinase activity) by TEL2 IP: reduced 4E-BP1 phosphorylation to levels comparable with IPs using control IgG
[2]
  mTORC3 signaling / kinase activity in cultured cells: sensitive; also recorded: fully inhibited
Karpas-299 cells
  Proliferation of Karpas-299 cells: completely inhibited proliferation
mTOR
  4E-BP1 phosphorylation (kinase activity) by mTOR IP: reduced 4E-BP1 phosphorylation to levels comparable with IPs using control IgG

## CO[C@H]1C[C@@H]2CC[C@@H](C)[C@@](O)(O2)C(=O)C(=O)N2CCCC[C@H]2C(=O)O[C@H]([C@H](C)C[C@@H]2CC[C@@H](O)[C@H](OC)C2)CC(=O)[C@H](C)/C=C(\C)[C@@H](O)[C@@H](OC)C(=O)[C@H](C)C[C@H](C)/C=C/C=C/C=C/1C [Rapamycin]
[4]
  Drug concentration at which cells stopped proliferating: > 0.3 ng/mL
[2]; Karpas-299
  Concentration causing marked reduction of p-AKT Ser473 phosphorylation: > 0.3 ng/mL

B1: TEL2 (translocation Ets leukemia 2 / Ets variant gene 7) (other)
chain: MQEGELAISPISPVAAMPPLGTHVQARCEAQINLLGEGGICKLPGRLRIQPALWSREDVLHWLRWAEQEYSLPCTAEHGFEMNGRALCILTKDDFRHRAPSSGDVLYELLQYIKTQRRALVCGPFFGGIFRLKTPTQHSPVPPEEVTGPSQMDTRRGHLLQPPDPGLTSNFGHLDDPGLARWTPGKEESLNLCHCAELGCRTQGVCSFPAMPQAPIDGRIADCRLLWDYVYQLLLDTRYEPYIKWEDKDAKIFRVVDPNGLARLWGNHKNRVNMTYEKMSRALRHYYKLNIIKKEPGQKLLFRFLKTPGKMVQDKHSHLEPLESQEQDRIEFKDKRPEISP
notes: Endogenous in the human cell lines and xenografts; Exogenous (MSCV-TEL2-IRES-GFP) in mouse Arf-/- pre-B cells; Purified from transfected HEK 293T cells for the in vitro association; also called TEL2/ETV7; ETV7
[5]
  binding result: no binding
[6]
  binding result: no binding
[7]
  binding result: no binding
[8]
  binding result: no binding
[9]
  binding result: no binding
SIN1 (human cell lines)
  binding result: no binding
